From article PMC5504166, “Rosmarinic Acid Protects against Inflammation and Cardiomyocyte Apoptosis during Myocardial Ischemia/Reperfusion Injury by Activating Peroxisome Proliferator-Activated Receptor Gamma” (Frontiers in Pharmacology, 2017)

Columns and labels:
PPARγ = molecular target: T1, PPARγ (Homo sapiens, UniProt P37231); test: PolarScreen PPAR Gamma Competitor Assay, Green (fluorescence polarization competition); format: binding; settings: read-out: EC50 (mean ± SD μM)
T1 construct: gene PPARG
T1 sequence (P37231 1-505): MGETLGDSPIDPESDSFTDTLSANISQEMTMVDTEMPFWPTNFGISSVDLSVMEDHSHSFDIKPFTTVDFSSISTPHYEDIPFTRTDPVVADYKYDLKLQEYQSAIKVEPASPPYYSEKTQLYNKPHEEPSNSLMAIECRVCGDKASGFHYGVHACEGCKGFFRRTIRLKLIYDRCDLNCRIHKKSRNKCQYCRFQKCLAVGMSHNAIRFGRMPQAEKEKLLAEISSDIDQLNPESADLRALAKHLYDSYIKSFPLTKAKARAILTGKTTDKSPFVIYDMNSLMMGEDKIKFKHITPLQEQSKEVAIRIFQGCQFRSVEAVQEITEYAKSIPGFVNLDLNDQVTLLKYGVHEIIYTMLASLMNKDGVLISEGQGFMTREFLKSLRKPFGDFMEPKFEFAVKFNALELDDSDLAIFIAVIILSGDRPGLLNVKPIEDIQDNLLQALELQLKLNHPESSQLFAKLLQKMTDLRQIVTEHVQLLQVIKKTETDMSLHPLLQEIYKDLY

[1] = molecular target: T2, PTGS2/COX2 (Prostaglandin G/H synthase 2) (Ovis aries, UniProt P79208); test: Colorimetric COX (ovine) inhibitor screening assay kit (Cayman); format: biochemical; settings: read-out: IC50 (mean ± SD μM)
T2 sequence (P79208 17-603): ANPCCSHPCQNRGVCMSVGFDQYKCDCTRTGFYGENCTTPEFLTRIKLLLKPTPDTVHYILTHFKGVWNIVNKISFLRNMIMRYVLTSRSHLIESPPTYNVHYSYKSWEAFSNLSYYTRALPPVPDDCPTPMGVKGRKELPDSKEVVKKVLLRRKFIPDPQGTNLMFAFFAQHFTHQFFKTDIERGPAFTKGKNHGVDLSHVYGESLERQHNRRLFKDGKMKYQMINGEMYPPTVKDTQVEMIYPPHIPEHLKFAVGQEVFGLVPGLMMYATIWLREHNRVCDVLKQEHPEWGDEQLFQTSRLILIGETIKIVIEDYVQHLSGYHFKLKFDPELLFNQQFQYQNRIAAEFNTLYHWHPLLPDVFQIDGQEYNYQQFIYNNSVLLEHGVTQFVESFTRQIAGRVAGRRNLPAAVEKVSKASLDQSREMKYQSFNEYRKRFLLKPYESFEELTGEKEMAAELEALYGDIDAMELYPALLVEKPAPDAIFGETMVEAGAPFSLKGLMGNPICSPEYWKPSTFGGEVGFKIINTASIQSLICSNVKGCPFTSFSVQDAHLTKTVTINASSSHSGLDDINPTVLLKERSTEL

In the case of `O=C(/C=C/c1ccc(O)c(O)c1)O[C@H](Cc1ccc(O)c(O)c1)C(=O)O` [RosA, Rosmarinic acid], the EC50 (PPARγ) is reported as 55.8 ± 3.45 µM and the IC50 [1] is reported as 170 ± 9.18 µM.
